Data reported in patent publication US11897969B2, “Inhibition of oxidation-specific epitopes to treat ischemic reperfusion injury” (The Regents of the University of California, priority 2017, dated 2024).
Values joined by “and” are separate entries in the source; they are usually repeats but may differ in a detail not shown here. Identical values can stand only once.

What was measured:
[1] = test system: neonatal rat cardiomyocytes (NNCM); test: In vitro OxPC treatment and assessment of cell viability (calcein-AM / ethidium homodimer-1); format: cell-based; details: 4 hours
Description: Cell culture of rat cardiomyocytes. All animal experiments performed conform to the NIH guidelines regarding animal experimentation. Neonatal rat cardiomyocytes (NNCM) were isolated from 1-2 day old Sprague-Dawley rat pups. Whole hearts were excised from rat pups by midline sternotomy after cervical dislocation. Hearts were washed and minced to adequately break up macroscopic structures before re-washing with cold filter sterilized phosphate buffered saline (PBS) containing 10 g/L of glucose to remove red blood cells and debris. Repeated enzymatic digestion of heart fragments was performed with collagenase (740U), trypsin (370U), and DNase (2880U) (Worthington Biochemical) agitating at 35° C. for three 10-minute and three 7-minute digestions. Digested supernatant solutions were centrifuged into a cell pellet and then separation of cell types using a Percoll® (GE Healthcare) gradient of 1.05, 1.06, and 1.082 g/mL allowed for a layer enriched with myocytes to be isolated. To remove fibroblasts, the cells were pre-plated on non-coated 150 mm culture plates for 45 min. Purified NNCM (95% pure by sarcomere staining) were then transferred to sterile tissue culture plates at a cell density of 1.75×10^6/35-mm plate. Collagen-coated glass coverslips in 24-well tissue culture plates were used for microscopy analysis and NNCM were plated at 3.2×10^5/well. Cells were incubated overnight in Dulbecco's Modified Eagle Medium/Ham's nutrient mixture F-12 (1:1) containing 2 mM glutamine, 3 mM NaHCO3, 15 mM HEPES, and […] gentamycin (DMEM/F12) plus 10% fetal bovine serum (FBS). DMEM/F12 with 10% FBS was changed to serum-free DMEM/F12 (DFSF) the following day. Control solution consisted of 140 mM NaCl, 6 mM KCl, 1.25 mM CaCl2, 6 mM HEPES, and 10 mM D-glucose buffered to pH 7.4, ischemic solution was buffered to pH 6.0, and consisted of the same components, except 8 mM KCl was added and no D-glucose was added. The ischemic buffer was purged of oxygen by bubbling 95% N2 and 5% CO2 gas into the medium for 1 hour before being applied to cells. A hypoxic chamber designed for storage in a 37° C. water jacketed tissue culture incubator was used to maintain an atmosphere of 95% N2 and 5% CO2 gas conditions for 18 hours overnight. Reperfusion was achieved by applying control buffer to cells for 4 hours in a normal culture incubator. After the treatment, cells were scraped off into a small portion of PBS. Cardiomyocyte cell lysates were subjected to Western Blot analysis.
In vitro OxPC treatment and assessment of cell viability. Fresh DFSF was applied to NNCM on glass cover-slips and supplemented with 1, 2, 5, and 10 μM concentrations of OxPL lipids sonicated into PBS, forming micelles. Four OxPL species, POVPC, PONPC, PGPC, and PAzPC were applied to NNCM plates for 4 hours and compared to a non-oxidized PC standard PSPC. Plates were then washed with PBS before NNCM were analyzed for cell viability using vital dyes, calcein-acetoxymethyl ester (AM) and ethidium homodimer-1 (Invitrogen). Mitochondrial permeability after exposure to OxPL molecules was monitored by fluorescence microscopy using a solution of calcein-AM fluorescent dye with cobalt chloride (CoCl2) applied to cardiomyocytes cultured on glass coverslips.

[2] = test system: neonatal rat cardiomyocytes (NNCM); test: Neutralization of OxPL by E06: OxPL-induced cardiomyocyte cell death with E06 co-treatment; format: cell-based; details: 5 μM lipid alone, 2 hrs
Description: Cell culture of rat cardiomyocytes. All animal experiments performed conform to the NIH guidelines regarding animal experimentation. Neonatal rat cardiomyocytes (NNCM) were isolated from 1-2 day old Sprague-Dawley rat pups. Whole hearts were excised from rat pups by midline sternotomy after cervical dislocation. Hearts were washed and minced to adequately break up macroscopic structures before re-washing with cold filter sterilized phosphate buffered saline (PBS) containing 10 g/L of glucose to remove red blood cells and debris. Repeated enzymatic digestion of heart fragments was performed with collagenase (740U), trypsin (370U), and DNase (2880U) (Worthington Biochemical) agitating at 35° C. for three 10-minute and three 7-minute digestions. Digested supernatant solutions were centrifuged into a cell pellet and then separation of cell types using a Percoll® (GE Healthcare) gradient of 1.05, 1.06, and 1.082 g/mL allowed for a layer enriched with myocytes to be isolated. To remove fibroblasts, the cells were pre-plated on non-coated 150 mm culture plates for 45 min. Purified NNCM (95% pure by sarcomere staining) were then transferred to sterile tissue culture plates at a cell density of 1.75×10^6/35-mm plate. Collagen-coated glass coverslips in 24-well tissue culture plates were used for microscopy analysis and NNCM were plated at 3.2×10^5/well. […]
In vitro OxPC treatment and assessment of cell viability. […] Plates were then washed with PBS before NNCM were analyzed for cell viability using vital dyes, calcein-acetoxymethyl ester (AM) and ethidium homodimer-1 (Invitrogen). Mitochondrial permeability after exposure to OxPL molecules was monitored by fluorescence microscopy using a solution of calcein-AM fluorescent dye with cobalt chloride (CoCl2) applied to cardiomyocytes cultured on glass coverslips.
To evaluate the effect of neutralizing OxPL on cell viability, the IgM E06 antibody was used at a concentration of 10 μg/mL within cell culture. […] Cell viability was assessed as described above. […] Images were assessed using Adobe Photoshop CS5.1 Software.

E06-scFv-Tg/Ldlr−/− mice = test: Myocardial ischemia-reperfusion (LAD ligation), histologic infarct size in E06-scFv-Tg/Ldlr−/− mice; format: in vivo, mouse
Description: (§1) Generation and characterization of E06-scFv transgenic mice. The generation of transgenic C57BL/6 mice expressing the T15/E06 idiotype as a single chain variable antibody fragment—termed E06-scFv-Tg. In brief, the cDNAs encoding E06 variable regions of the heavy and light chains were linked with a 15-amino acid peptide by overlapping PCR, and cloned into an expression vector pSecTag2A (Invitrogen) containing a murine Ig kappa-chain leader sequence for secretion and c-myc and polyHis as epitope tags. […] The same construct was then cloned into the liver-specific expression vector pLiv7 and used to generate transgenic (Tg) mice in the C57BL/6 background expressing the E06-scFv transgene driven by the apoE promoter. Offspring were screened both for plasma E06-scFv titer and integration of the transgene by PCR amplification of the tail DNA. The transgenic E06-scFv founder lines were bred with each other to generate “homozygous” transgenic mice, and in turn, these were crossed into Ldl^−/− mice on the C57BL/6 background. All animals were genotyped for E06-scFv and Ldlr^−/−, respectively and plasma assayed to confirm expression of the E06-scFv by immunoassay. The E06-scFv mRNA was strongly expressed in liver, peritoneal macrophages and spleen, and to a lesser extent in heart. Plasma levels of the E06-scFv averaged 20-30 μg/ml in these studies.
Adult (18-20-week-old) E06-scFv-Tg/Ldlr^−/− mice or Ldlr^−/− mice weighing 16-40 grams, were anesthetized with a mixture of Ketamine (50 mg/kg) and Xylazine (5 mg/kg) and 1.0% isoflurane. Mice were intubated with a pressure ventilator (Kent Scientific, PhysioSuite. Peak inspiration pressure was ˜13 cm H2O and inspiration rate 100-110. The skin over the mid thorax was shaved and cleansed with Betadine or Chlorhexidine solution. A skin incision was made from the midsternal line toward the left armpit, and the chest opened with a 1 cm lateral cut along the left side of the sternum, cutting between the 3rd and 4th ribs to expose the left ventricle of the heart. The ascending aorta and main pulmonary artery were identified; the left anterior descending (LAD) coronary artery was located as it traverses the anterior wall of the heart, between the left and right ventricles. LAD coronary artery occlusion was performed by tying an 8-0 prolene suture ligature on a piece of 2-0 silk suture. Occlusion of the artery was assessed by blanching of the territory of perfusion of the LAD coronary artery, along with acute ST segment elevation on limb-lead electrocardiographic leads. Following an ischemic period of 60 minutes, the suture was removed from around the LAD coronary artery. […]
Histologic assessment of infarct size. […] The sizes of AAR and infarct area (IA) were quantified by computerized planimetry using ImageJ. […]

[3] = Binding properties of E06-scFv secreted into HEK293 culture supernatant; details: E06-scFv in HEK293 culture supernatant
Description: as §1

[4] = Plasma levels of E06-scFv in transgenic mice (immunoassay); format: in vivo, mouse; details: transgenic mice constitutively expressing E06-scFv (apoE promoter)
Description: as §1

[5] = E06-scFv-Tg/Ldlr−/− mice, 7 days after 60 minutes LAD ischemia and reperfusion
[6] = E06-scFv-Tg/Ldlr−/− vs Ldlr−/− mice, 7 days after IR

Molecule | cell death ([1]; 1 μM lipid) [%] | cell death ([1]; 2 μM lipid) [%] | cell death ([1]; 5 μM lipid) [%] | cell death without E06 [2] [%] | cell death ([1]; 10 μM lipid) [%] | IA/AAR (infarct area as percentage of area at risk) (E06-scFv-Tg/Ldlr−/− mice; [5]) [%] | IA/LV (infarct area as percentage of left ventricle) (E06-scFv-Tg/Ldlr−/− mice; [5]) [%] | smaller IA/AAR compared to Ldlr−/− mice (E06-scFv-Tg/Ldlr−/− mice; [6]) [%] | smaller IA/LV compared to Ldlr−/− mice (E06-scFv-Tg/Ldlr−/− mice; [6]) | binding properties compared with intact E06 [3] | plasma levels of E06-scFv [4] [µg/mL]
CCCCCCCCCCCCCCCC(=O)OC[C@H](COP(=O)([O-])OCC[N+](C)(C)C)OC(=O)CCCCCCCC=O [PONPC, 1-palmitoyl-2-(9-oxo)nonanoyl-sn-glycero-3-phosphocholine] | 28.3±8.9 | 42.0±6.2 | 70.0±18.6 | 25.3±3.4 | – | – | – | – | – | – | –
CCCCCCCCCCCCCCCC(=O)OC[C@H](COP(=O)([O-])OCC[N+](C)(C)C)OC(=O)CCCC=O [POVPC, 1-palmitoyl-2-(5-oxovaleroyl)-sn-glycero-3-phosphocholine] | – | – | – | 22.6±4.14 | 68.6±14.8 | – | – | – | – | – | –
CCCCCCCCCCCCCCCCCC(=O)O[C@H](COC(=O)CCCCCCCCCCCCCCC)COP(=O)([O-])OCC[N+](C)(C)C [PSPC] | 7.6±5.1 | 9.1±10.5 | 10.5±1.6 | 6.2±1.6 | 5.5±1.6 | – | – | – | – | – | –
E06-scFv: single chain variable antibody fragment of E06 (heavy and light variable regions joined by 15-amino acid linker), expressed in transgenic mice (protein) scFv: DAAQPARRAVRSLDIVMTQSPSSLSVSAGKKVTISCTASESLYSSKHKVHYLAWYQKKPEQSPKLLIYGASNRYIGVPDRFTGSGSGTDFTLTISSVQVEDLTHYYCAQFYSYPLTFGAGTKLEIKGGGGSGGGGSGGGGSEVKLVESGGGLVQPGGSLRLSCATSGFTFSDFYMEWVRQAPGKRLEWIAASRNKANDYTTEYADSVKGRFIVSRDTSQSILYLQMNALRAEDTAIYYCARDYYGSSYWYFDVWGAGTTVTVSSRGGPEQKLISEEDLNSAVD | – | – | – | – | – | 47.7±17.6 | 16.3±7.5 | 65.9 | 58.8% and 58.5% | mimic those of the intact E06 | 20 to 30
